# Assay results published in PubChem BioAssay (NCI).
#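 Method: 48-hour compound exposure of cells in 96-well plates, five concentrations, linear interpolation of endpoints. Definition used: TGI = concentration required for complete inhibition of growth.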
# Tested on: SF-539 CNS
# Experiment: inhibition of tumour cell growth, NCI panel, 48 h
row,SMILES,TGI
1,O=C(CC(=O)Nc1cccc(C(=O)O)c1)Nc1cccc(C(=O)O)c1,> 100 µM
2,O=C(NCCCCCCNC(=O)c1cccc2ccccc12)Nc1cccc2ccccc12,> 100 µM

# Tested on: SK-MEL-2 melanoma
# Experiment: inhibition of tumour cell growth, NCI panel, 48 h
row,SMILES,TGI
1,CCC(C)(C)/C(CC(O)(C(F)(F)F)C(F)(F)F)=N\O,> 100 µM
2,N#CSC#Cc1ccc(C#CSC#N)cc1,38.8 µM
3,Cc1cc(C)c(S(=O)(=O)N2CCCN(S(=O)(=O)c3c(C)cc(C)cc3C)OCCCON(S(=O)(=O)c3c(C)cc(C)cc3C)CCCN(S(=O)(=O)c3c(C)cc(C)cc3C)OCCCO2)c(C)c1,> 100 µM
4,CC(C)C1OC23CCCCC2C(C#N)(C#N)C1(C#N)C(=N)O3 (stereo unspecified),76 µM
5,NC(CCCCP(=O)(O)O)C(=O)O (stereo unspecified),> 100 µM
6,O=C(CC(=O)Nc1cccc(C(=O)O)c1)Nc1cccc(C(=O)O)c1,> 100 µM
7,O=C(NCCCCCCNC(=O)c1cccc2ccccc12)Nc1cccc2ccccc12,> 100 µM

# Tested on: SK-MEL-28 melanoma
# Experiment: inhibition of tumour cell growth, NCI panel, 48 h
row,SMILES,TGI
1,CCC(C)(C)/C(CC(O)(C(F)(F)F)C(F)(F)F)=N\O,> 100 µM
2,N#CSC#Cc1ccc(C#CSC#N)cc1,57.2 µM
3,Cc1cc(C)c(S(=O)(=O)N2CCCN(S(=O)(=O)c3c(C)cc(C)cc3C)OCCCON(S(=O)(=O)c3c(C)cc(C)cc3C)CCCN(S(=O)(=O)c3c(C)cc(C)cc3C)OCCCO2)c(C)c1,> 100 µM
4,CC(C)C1OC23CCCCC2C(C#N)(C#N)C1(C#N)C(=N)O3 (stereo unspecified),87.3 µM
5,NC(CCCCP(=O)(O)O)C(=O)O (stereo unspecified),> 100 µM
6,O=C(CC(=O)Nc1cccc(C(=O)O)c1)Nc1cccc(C(=O)O)c1,> 100 µM
7,O=C(NCCCCCCNC(=O)c1cccc2ccccc12)Nc1cccc2ccccc12,> 100 µM

# Tested on: SK-MEL-5 melanoma
# Experiment: inhibition of tumour cell growth, NCI panel, 48 h
row,SMILES,TGI
1,CCC(C)(C)/C(CC(O)(C(F)(F)F)C(F)(F)F)=N\O,> 100 µM
2,N#CSC#Cc1ccc(C#CSC#N)cc1,33.2 µM
3,Cc1cc(C)c(S(=O)(=O)N2CCCN(S(=O)(=O)c3c(C)cc(C)cc3C)OCCCON(S(=O)(=O)c3c(C)cc(C)cc3C)CCCN(S(=O)(=O)c3c(C)cc(C)cc3C)OCCCO2)c(C)c1,> 100 µM
4,CC(C)C1OC23CCCCC2C(C#N)(C#N)C1(C#N)C(=N)O3 (stereo unspecified),35.7 µM
5,NC(CCCCP(=O)(O)O)C(=O)O (stereo unspecified),> 100 µM
6,O=C(CC(=O)Nc1cccc(C(=O)O)c1)Nc1cccc(C(=O)O)c1,> 100 µM
7,O=C(NCCCCCCNC(=O)c1cccc2ccccc12)Nc1cccc2ccccc12,> 100 µM

# Tested on: SK-OV-3 ovarian
# Experiment: inhibition of tumour cell growth, NCI panel, 48 h
row,SMILES,TGI
1,CCC(C)(C)/C(CC(O)(C(F)(F)F)C(F)(F)F)=N\O,> 100 µM
2,N#CSC#Cc1ccc(C#CSC#N)cc1,43 µM
3,Cc1cc(C)c(S(=O)(=O)N2CCCN(S(=O)(=O)c3c(C)cc(C)cc3C)OCCCON(S(=O)(=O)c3c(C)cc(C)cc3C)CCCN(S(=O)(=O)c3c(C)cc(C)cc3C)OCCCO2)c(C)c1,> 100 µM
4,CC(C)C1OC23CCCCC2C(C#N)(C#N)C1(C#N)C(=N)O3 (stereo unspecified),> 100 µM
5,NC(CCCCP(=O)(O)O)C(=O)O (stereo unspecified),> 100 µM

# Tested on: SN12C renal
# Experiment: inhibition of tumour cell growth, NCI panel, 48 h
row,SMILES,TGI
1,CCC(C)(C)/C(CC(O)(C(F)(F)F)C(F)(F)F)=N\O,> 100 µM
2,N#CSC#Cc1ccc(C#CSC#N)cc1,34.6 µM
3,CC(C)C1OC23CCCCC2C(C#N)(C#N)C1(C#N)C(=N)O3 (stereo unspecified),31.4 µM
4,NC(CCCCP(=O)(O)O)C(=O)O (stereo unspecified),> 100 µM
5,O=C(CC(=O)Nc1cccc(C(=O)O)c1)Nc1cccc(C(=O)O)c1,> 100 µM
6,O=C(NCCCCCCNC(=O)c1cccc2ccccc12)Nc1cccc2ccccc12,> 100 µM

# Tested on: SNB-19 CNS
# Experiment: inhibition of tumour cell growth, NCI panel, 48 h
row,SMILES,TGI
1,CCC(C)(C)/C(CC(O)(C(F)(F)F)C(F)(F)F)=N\O,> 100 µM
2,N#CSC#Cc1ccc(C#CSC#N)cc1,47.7 µM
3,Cc1cc(C)c(S(=O)(=O)N2CCCN(S(=O)(=O)c3c(C)cc(C)cc3C)OCCCON(S(=O)(=O)c3c(C)cc(C)cc3C)CCCN(S(=O)(=O)c3c(C)cc(C)cc3C)OCCCO2)c(C)c1,> 100 µM
4,CC(C)C1OC23CCCCC2C(C#N)(C#N)C1(C#N)C(=N)O3 (stereo unspecified),> 100 µM
5,NC(CCCCP(=O)(O)O)C(=O)O (stereo unspecified),> 100 µM
6,O=C(CC(=O)Nc1cccc(C(=O)O)c1)Nc1cccc(C(=O)O)c1,> 100 µM
7,O=C(NCCCCCCNC(=O)c1cccc2ccccc12)Nc1cccc2ccccc12,> 100 µM

# Tested on: SNB-75 CNS
# Experiment: inhibition of tumour cell growth, NCI panel, 48 h
row,SMILES,TGI
1,CCC(C)(C)/C(CC(O)(C(F)(F)F)C(F)(F)F)=N\O,> 100 µM
2,Cc1cc(C)c(S(=O)(=O)N2CCCN(S(=O)(=O)c3c(C)cc(C)cc3C)OCCCON(S(=O)(=O)c3c(C)cc(C)cc3C)CCCN(S(=O)(=O)c3c(C)cc(C)cc3C)OCCCO2)c(C)c1,> 100 µM
3,CC(C)C1OC23CCCCC2C(C#N)(C#N)C1(C#N)C(=N)O3 (stereo unspecified),> 100 µM
4,NC(CCCCP(=O)(O)O)C(=O)O (stereo unspecified),> 100 µM
5,O=C(NCCCCCCNC(=O)c1cccc2ccccc12)Nc1cccc2ccccc12,> 100 µM

# Tested on: SR leukemia
# Experiment: inhibition of tumour cell growth, NCI panel, 48 h
row,SMILES,TGI
1,CCC(C)(C)/C(CC(O)(C(F)(F)F)C(F)(F)F)=N\O,> 100 µM
2,N#CSC#Cc1ccc(C#CSC#N)cc1,> 100 µM
3,Cc1cc(C)c(S(=O)(=O)N2CCCN(S(=O)(=O)c3c(C)cc(C)cc3C)OCCCON(S(=O)(=O)c3c(C)cc(C)cc3C)CCCN(S(=O)(=O)c3c(C)cc(C)cc3C)OCCCO2)c(C)c1,> 100 µM
4,NC(CCCCP(=O)(O)O)C(=O)O (stereo unspecified),> 100 µM

# Tested on: SW-620 colon
# Experiment: inhibition of tumour cell growth, NCI panel, 48 h
row,SMILES,TGI
1,CCC(C)(C)/C(CC(O)(C(F)(F)F)C(F)(F)F)=N\O,> 100 µM
2,N#CSC#Cc1ccc(C#CSC#N)cc1,44.1 µM
3,Cc1cc(C)c(S(=O)(=O)N2CCCN(S(=O)(=O)c3c(C)cc(C)cc3C)OCCCON(S(=O)(=O)c3c(C)cc(C)cc3C)CCCN(S(=O)(=O)c3c(C)cc(C)cc3C)OCCCO2)c(C)c1,> 100 µM
4,CC(C)C1OC23CCCCC2C(C#N)(C#N)C1(C#N)C(=N)O3 (stereo unspecified),99.3 µM
5,NC(CCCCP(=O)(O)O)C(=O)O (stereo unspecified),> 100 µM
6,O=C(CC(=O)Nc1cccc(C(=O)O)c1)Nc1cccc(C(=O)O)c1,> 100 µM
7,O=C(NCCCCCCNC(=O)c1cccc2ccccc12)Nc1cccc2ccccc12,> 100 µM

# Tested on: T-47D breast
# Experiment: inhibition of tumour cell growth, NCI panel, 48 h
row,SMILES,TGI
1,CCC(C)(C)/C(CC(O)(C(F)(F)F)C(F)(F)F)=N\O,> 100 µM
2,CC(C)C1OC23CCCCC2C(C#N)(C#N)C1(C#N)C(=N)O3 (stereo unspecified),71.7 µM
3,NC(CCCCP(=O)(O)O)C(=O)O (stereo unspecified),> 100 µM
4,O=C(CC(=O)Nc1cccc(C(=O)O)c1)Nc1cccc(C(=O)O)c1,> 100 µM
5,O=C(NCCCCCCNC(=O)c1cccc2ccccc12)Nc1cccc2ccccc12,> 100 µM

# Tested on: TK-10 renal
# Experiment: inhibition of tumour cell growth, NCI panel, 48 h
row,SMILES,TGI
1,CCC(C)(C)/C(CC(O)(C(F)(F)F)C(F)(F)F)=N\O,> 100 µM
2,N#CSC#Cc1ccc(C#CSC#N)cc1,31.3 µM
3,Cc1cc(C)c(S(=O)(=O)N2CCCN(S(=O)(=O)c3c(C)cc(C)cc3C)OCCCON(S(=O)(=O)c3c(C)cc(C)cc3C)CCCN(S(=O)(=O)c3c(C)cc(C)cc3C)OCCCO2)c(C)c1,> 100 µM
4,CC(C)C1OC23CCCCC2C(C#N)(C#N)C1(C#N)C(=N)O3 (stereo unspecified),48.4 µM
5,NC(CCCCP(=O)(O)O)C(=O)O (stereo unspecified),> 100 µM
6,O=C(CC(=O)Nc1cccc(C(=O)O)c1)Nc1cccc(C(=O)O)c1,> 100 µM
7,O=C(NCCCCCCNC(=O)c1cccc2ccccc12)Nc1cccc2ccccc12,> 100 µM

# Tested on: U251 CNS
# Experiment: inhibition of tumour cell growth, NCI panel, 48 h
row,SMILES,TGI
1,CCC(C)(C)/C(CC(O)(C(F)(F)F)C(F)(F)F)=N\O,> 100 µM
2,N#CSC#Cc1ccc(C#CSC#N)cc1,41.8 µM
3,Cc1cc(C)c(S(=O)(=O)N2CCCN(S(=O)(=O)c3c(C)cc(C)cc3C)OCCCON(S(=O)(=O)c3c(C)cc(C)cc3C)CCCN(S(=O)(=O)c3c(C)cc(C)cc3C)OCCCO2)c(C)c1,> 100 µM
4,CC(C)C1OC23CCCCC2C(C#N)(C#N)C1(C#N)C(=N)O3 (stereo unspecified),63.9 µM
5,NC(CCCCP(=O)(O)O)C(=O)O (stereo unspecified),> 100 µM
6,O=C(CC(=O)Nc1cccc(C(=O)O)c1)Nc1cccc(C(=O)O)c1,> 100 µM
7,O=C(NCCCCCCNC(=O)c1cccc2ccccc12)Nc1cccc2ccccc12,> 100 µM

# Tested on: UACC-257 melanoma
# Experiment: inhibition of tumour cell growth, NCI panel, 48 h
row,SMILES,TGI
1,N#CSC#Cc1ccc(C#CSC#N)cc1,33.8 µM
2,Cc1cc(C)c(S(=O)(=O)N2CCCN(S(=O)(=O)c3c(C)cc(C)cc3C)OCCCON(S(=O)(=O)c3c(C)cc(C)cc3C)CCCN(S(=O)(=O)c3c(C)cc(C)cc3C)OCCCO2)c(C)c1,> 100 µM
3,CC(C)C1OC23CCCCC2C(C#N)(C#N)C1(C#N)C(=N)O3 (stereo unspecified),45.9 µM
4,NC(CCCCP(=O)(O)O)C(=O)O (stereo unspecified),> 100 µM
5,O=C(CC(=O)Nc1cccc(C(=O)O)c1)Nc1cccc(C(=O)O)c1,> 100 µM
6,O=C(NCCCCCCNC(=O)c1cccc2ccccc12)Nc1cccc2ccccc12,> 100 µM

# Tested on: UACC-62 melanoma
# Experiment: inhibition of tumour cell growth, NCI panel, 48 h
row,SMILES,TGI
1,CCC(C)(C)/C(CC(O)(C(F)(F)F)C(F)(F)F)=N\O,> 100 µM
2,N#CSC#Cc1ccc(C#CSC#N)cc1,32.5 µM
3,Cc1cc(C)c(S(=O)(=O)N2CCCN(S(=O)(=O)c3c(C)cc(C)cc3C)OCCCON(S(=O)(=O)c3c(C)cc(C)cc3C)CCCN(S(=O)(=O)c3c(C)cc(C)cc3C)OCCCO2)c(C)c1,> 100 µM
4,CC(C)C1OC23CCCCC2C(C#N)(C#N)C1(C#N)C(=N)O3 (stereo unspecified),58 µM
5,NC(CCCCP(=O)(O)O)C(=O)O (stereo unspecified),> 100 µM
6,O=C(CC(=O)Nc1cccc(C(=O)O)c1)Nc1cccc(C(=O)O)c1,> 100 µM
7,O=C(NCCCCCCNC(=O)c1cccc2ccccc12)Nc1cccc2ccccc12,> 100 µM

# Tested on: UO-31 renal
# Experiment: inhibition of tumour cell growth, NCI panel, 48 h
row,SMILES,TGI
1,CCC(C)(C)/C(CC(O)(C(F)(F)F)C(F)(F)F)=N\O,> 100 µM
2,N#CSC#Cc1ccc(C#CSC#N)cc1,33.6 µM
3,Cc1cc(C)c(S(=O)(=O)N2CCCN(S(=O)(=O)c3c(C)cc(C)cc3C)OCCCON(S(=O)(=O)c3c(C)cc(C)cc3C)CCCN(S(=O)(=O)c3c(C)cc(C)cc3C)OCCCO2)c(C)c1,> 100 µM
4,CC(C)C1OC23CCCCC2C(C#N)(C#N)C1(C#N)C(=N)O3 (stereo unspecified),> 100 µM
5,NC(CCCCP(=O)(O)O)C(=O)O (stereo unspecified),> 100 µM
6,O=C(CC(=O)Nc1cccc(C(=O)O)c1)Nc1cccc(C(=O)O)c1,> 100 µM
7,O=C(NCCCCCCNC(=O)c1cccc2ccccc12)Nc1cccc2ccccc12,> 100 µM
